Assay results reported in patent US20240116889A1, “ANTIVIRAL COMPOUNDS AND METHODS” (priority 2019, published 2024).

Assays:
hCoV OC43 = hCoV OC43 production in NHBE cells (RT-qPCR); format: cell-based, human coronavirus OC43; conditions: 30 min pre-infection priming, 48 and 72 hpi
Description: Cells were primed with TG as indicated for 30 min, washed twice with PBS and infected with hCoV OC43 at 0.01 MOI (based on FFAs) for 3 h; after which cells were again washed twice with PBS and incubated in serum-free Promocell media (supplemented with 0.1 μg/ml TPCK trypsin). Culture media were harvested at 48 and 72 hpi for viral RNA extraction followed by one-step reverse transcription qPCR to detect the relative copy number of OC43 replicase polyprotein lab RNA. Indicated significance using Tukey's multiple comparisons test and percentage viral RNA reduction relative to corresponding DMSO control.

DDIT3, HSPA5 and HSP90B1 = format: cell-based, pig; conditions: NPTr cells, porcine myoblasts and NHBE cells; non-toxic TG, 30 min
A549 cells = assay: Cell viability of A549 cells (CellTiter-Glo 2.0); format: cell-based, human; conditions: RDV continuous, TG 30 min, overnight
Description: (A) A549 cells were primed with indicated TG, 0.3 μM RDV or DMSO control for 30 min, washed twice with PBS and infected with 0.01 MOI of CoV OC43 for 2 h, after which cells were washed again with PBS and incubated in fresh infection media (OptiMEM supplemented with 0.1 μg/ml TPCK-trypsin for TG primed cells, or fresh media in the continuous presence of RDV. At 24, 48 and 72 hpi, viral RNA extraction was performed on collected supernatants followed by one-step reverse transcription qPCR to detect the relative copy number of hCoV OC43 replicase polyprotein lab RNA, based on relative Ct method. Indicated significance relative to corresponding RDV-treated cells based on 2-way ANOVA Tukey's multiple comparisons test. (B) As in (A), A549 cells were primed continuously with RDV, or for 30 min with indicated TG or DMSO, washed, cultured overnight and subjected to cell viability assay (CellTiter-Glo 2.0 Cell Viability Assay, Promega).

C/C=C(/C)C(=O)O[C@H]1C(C)=C2[C@H]([C@@H]1OC(=O)CCCCCCC)[C@@](C)(OC(C)=O)C[C@H](OC(=O)CCC)[C@@]1(O)[C@H]2OC(=O)[C@@]1(C)O [TG, thapsigargin]
hCoV OC43 production (hCoV OC43): reduced hCoV OC43 production in a dose-dependent manner
expression of ER stress associated genes (DDIT3, HSPA5 and HSP90B1): consistently elevated ER stress associated genes
cell viability (A549 cells): no adverse effect on cell viability
